Source: ChEMBL document CHEMBL3421558, “Structure activity relationship of substituted 1,5-naphthyridine analogs of oxabicyclooctane-linked novel bacterial topoisomerase inhibitors as broad-spectrum antibacterial agents (Part-4)” (Bioorg Med Chem Lett, 2015)
In brackets after ≈: the same amount, converted by molar mass.

What follows are compounds tested on Staphylococcus aureus (assay: Antimicrobial activity against Staphylococcus aureus in orally dosed mouse bacteremia survival model). Settings: po.
Format: functional
`Cl.N#Cc1ccc2ncc(F)c(CCC34CCC(NCc5ccc6c(n5)NC(=O)CO6)(CC3)CO4)c2n1` was tested, and the ED50 was 17 mg/kg.
`COc1ccc2ncc(C#N)c(CC(O)C34CCC(NCc5ccc6c(n5)NC(=O)CO6)(CC3)CO4)c2n1.Cl` (centres undefined) gave an ED50 of 6.7 mg/kg.
For `COc1ccc2nccc(CCC34CCC(NCc5ccc6c(n5)NC(=O)CO6)(CC3)CO4)c2n1.Cl`, the ED50 was > 50 mg/kg.
`COc1ccc2ncc(C#N)c(CCC34CCC(NCc5ccc6c(n5)NC(=O)CO6)(CC3)CO4)c2n1.Cl` gave an ED50 of 9.6 mg/kg.
In the case of `COc1ccc2ncc(Cl)c(CCC34CCC(NCc5ccc6c(n5)NC(=O)CO6)(CC3)CO4)c2n1.Cl`, the ED50 is reported as > 50 mg/kg.

Each compound was assayed on Escherichia coli (assay: Antimicrobial activity against Escherichia coli ATCC 25922 by micro broth dilution or agar based method). Settings: Escherichia coli, ATCC 25922; read-out: MIC.
Format: functional
`CCOC(=O)c1c(OC)cnc2c(CCC34CCC(NCc5ccc6c(n5)NC(=O)CO6)(CC3)CO4)ccnc12` was tested, and the MIC was 16 µg/mL (≈ 29.2 µM).

Each compound was assayed on Streptococcus pneumoniae (assay: Antimicrobial activity against Streptococcus pneumoniae IID553 by micro broth dilution or agar based method). Settings: Streptococcus pneumoniae, IID553; read-out: MIC.
Format: functional
Compound `CCOC(=O)c1c(OC)cnc2c(CCC34CCC(NCc5ccc6c(n5)NC(=O)CO6)(CC3)CO4)ccnc12` has an MIC of 16 µg/mL (≈ 29.2 µM).

Each compound was assayed on Staphylococcus aureus (assay: Antimicrobial activity against methicillin-resistant Staphylococcus aureus OIT971 by micro broth dilution or agar based method). Settings: not given.
Format: functional
`CCOC(=O)c1c(OC)cnc2c(CCC34CCC(NCc5ccc6c(n5)NC(=O)CO6)(CC3)CO4)ccnc12` was tested, and the MIC was 16 µg/mL (≈ 29.2 µM).

These compounds were tested on Acinetobacter baumannii (assay: Antimicrobial activity against Acinetobacter baumannii IID876 by micro broth dilution or agar based method). Settings: Acinetobacter baumannii, IID876; read-out: MIC.
Format: functional
`CCOC(=O)c1c(OC)cnc2c(CCC34CCC(NCc5ccc6c(n5)NC(=O)CO6)(CC3)CO4)ccnc12` showed an MIC of 16 µg/mL (≈ 29.2 µM).

Each compound was assayed on Pseudomonas aeruginosa (assay: Antimicrobial activity against Pseudomonas aeruginosa PAO1 by micro broth dilution or agar based method). Settings: Pseudomonas aeruginosa, PAO1; read-out: MIC.
Format: functional
Work on `CCOC(=O)c1c(OC)cnc2c(CCC34CCC(NCc5ccc6c(n5)NC(=O)CO6)(CC3)CO4)ccnc12` yielded an MIC of 16 µg/mL (≈ 29.2 µM).

What follows are compounds tested against Voltage-gated inwardly rectifying potassium channel KCNH2 (Homo sapiens, UniProt Q12809) (assay: Inhibition of MK499 binding to human ERG). Settings: not given.
Sequence of Voltage-gated inwardly rectifying potassium channel KCNH2 (Q12809 whole entry): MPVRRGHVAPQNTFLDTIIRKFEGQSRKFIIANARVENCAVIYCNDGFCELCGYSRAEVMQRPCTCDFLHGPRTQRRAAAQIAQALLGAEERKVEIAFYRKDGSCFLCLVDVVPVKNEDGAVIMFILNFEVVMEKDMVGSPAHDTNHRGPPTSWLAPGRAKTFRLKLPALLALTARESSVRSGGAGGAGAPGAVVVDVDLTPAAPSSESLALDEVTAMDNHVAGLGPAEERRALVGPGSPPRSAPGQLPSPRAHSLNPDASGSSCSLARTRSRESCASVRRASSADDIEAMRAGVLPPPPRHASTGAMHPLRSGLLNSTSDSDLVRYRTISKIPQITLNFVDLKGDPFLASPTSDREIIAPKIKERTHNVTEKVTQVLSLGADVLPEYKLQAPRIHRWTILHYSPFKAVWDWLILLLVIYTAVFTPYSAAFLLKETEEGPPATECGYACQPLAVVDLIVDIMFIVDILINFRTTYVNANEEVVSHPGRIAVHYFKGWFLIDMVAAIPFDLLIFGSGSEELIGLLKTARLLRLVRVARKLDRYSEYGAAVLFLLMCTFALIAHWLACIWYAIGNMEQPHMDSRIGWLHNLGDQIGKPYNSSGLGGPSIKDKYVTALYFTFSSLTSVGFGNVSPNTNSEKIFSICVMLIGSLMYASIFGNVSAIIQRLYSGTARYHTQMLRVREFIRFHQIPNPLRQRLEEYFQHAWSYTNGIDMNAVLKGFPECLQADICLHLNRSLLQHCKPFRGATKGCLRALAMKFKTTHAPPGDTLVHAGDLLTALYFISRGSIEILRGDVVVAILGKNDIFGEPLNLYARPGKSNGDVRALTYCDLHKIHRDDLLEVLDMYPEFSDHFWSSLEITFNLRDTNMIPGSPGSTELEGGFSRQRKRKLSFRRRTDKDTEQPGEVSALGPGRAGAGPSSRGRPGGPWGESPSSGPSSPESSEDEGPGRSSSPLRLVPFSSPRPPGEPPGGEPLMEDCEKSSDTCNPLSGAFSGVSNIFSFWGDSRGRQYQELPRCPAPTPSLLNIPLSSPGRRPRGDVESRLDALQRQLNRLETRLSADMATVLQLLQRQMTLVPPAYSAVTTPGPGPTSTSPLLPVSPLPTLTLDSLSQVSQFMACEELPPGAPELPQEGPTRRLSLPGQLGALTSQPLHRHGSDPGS
Compound `CCOC(=O)c1c(OC)cnc2c(CCC34CCC(NCc5ccc6c(n5)NC(=O)CO6)(CC3)CO4)ccnc12` has an IC50 of 7.87 µM.

Each compound was assayed on Staphylococcus aureus (assay: Potency index, ratio of MIC for quinolone-resistant Staphylococcus aureus MS5935 to MIC for quinolone-[…]). Settings: not given.
Format: functional
`CCOC(=O)c1c(OC)cnc2c(CCC34CCC(NCc5ccc6c(n5)NC(=O)CO6)(CC3)CO4)ccnc12` was tested, and the Ratio was <4.

What follows are compounds tested on Staphylococcus aureus (assay: Antimicrobial activity against Staphylococcus aureus Smith by micro broth dilution or agar based method). Settings: Staphylococcus aureus, Smith; read-out: MIC.
Format: functional
`CCOC(=O)c1c(OC)cnc2c(CCC34CCC(NCc5ccc6c(n5)NC(=O)CO6)(CC3)CO4)ccnc12` showed an MIC of 16 µg/mL (≈ 29.2 µM).

These compounds were tested on Enterococcus faecium (assay: Antimicrobial activity against VanA expressing vancomycin-resistant Enterococcus faecium by micro broth dilution or agar based method). Settings: Enterococcus faecium; read-out: MIC.
Format: functional
For `CCOC(=O)c1c(OC)cnc2c(CCC34CCC(NCc5ccc6c(n5)NC(=O)CO6)(CC3)CO4)ccnc12`, the MIC was 16 µg/mL (≈ 29.2 µM).

Each compound was assayed on Staphylococcus aureus (assay: Antimicrobial activity against Staphylococcus aureus in iv dosed mouse bacteremia survival model). Settings: not given.
Format: functional
For `Cl.N#Cc1ccc2ncc(F)c(CCC34CCC(NCc5ccc6c(n5)NC(=O)CO6)(CC3)CO4)c2n1`, the ED50 was 20 mg/kg.
For `COc1ccc2ncc(C#N)c(CC(O)C34CCC(NCc5ccc6c(n5)NC(=O)CO6)(CC3)CO4)c2n1.Cl` (centres undefined), the ED50 was 5.1 mg/kg.
Work on `COc1ccc2nccc(CCC34CCC(NCc5ccc6c(n5)NC(=O)CO6)(CC3)CO4)c2n1.Cl` yielded an ED50 of 7.2 mg/kg.
`COc1ccc2ncc(C#N)c(CCC34CCC(NCc5ccc6c(n5)NC(=O)CO6)(CC3)CO4)c2n1.Cl` was tested, and the ED50 was 8.6 mg/kg.
`COc1ccc2ncc(Cl)c(CCC34CCC(NCc5ccc6c(n5)NC(=O)CO6)(CC3)CO4)c2n1.Cl` showed an ED50 of 17 mg/kg.
